Data: BigSolDB 2.1

O=C(O)[C@@H]1C[C@@H](O)CN1
Details	solubility (mole fraction)
in 1,4-dioxane, 288.15 K	0.00041
in 1,4-dioxane, 293.15 K	0.00063
in 1,4-dioxane, 298.15 K	0.00085
in 1,4-dioxane, 303.15 K	0.00108
in 1,4-dioxane, 308.15 K	0.00131
in 1,4-dioxane, 313.15 K	0.00153
in 1,4-dioxane, 318.15 K	0.00178
in 1,4-dioxane, 323.15 K	0.00204
in 1,4-dioxane, 328.15 K	0.00238
in 1,4-dioxane, 333.15 K	0.00274
in 2-butanone, 283.15 K	4.4e-05
in 2-butanone, 288.15 K	7.9e-05
in 2-butanone, 293.15 K	0.000128
in 2-butanone, 298.15 K	0.00019
in 2-butanone, 303.15 K	0.00028
in 2-butanone, 308.15 K	0.000382
in 2-butanone, 313.15 K	0.000483
in 2-butanone, 318.15 K	0.000602
in 2-butanone, 323.15 K	0.000723
in 2-butanone, 328.15 K	0.000865
in 2-butanone, 333.15 K	0.00101
in acetone, 283.15 K	0.000922
in acetone, 288.15 K	0.0011
in acetone, 293.15 K	0.00139
in acetone, 298.15 K	0.00164
in acetone, 303.15 K	0.00205
in acetone, 308.15 K	0.00235
in acetone, 313.15 K	0.00277
in acetone, 318.15 K	0.0032
in acetone, 323.15 K	0.00383
in acetone, 328.15 K	0.00441
in acetonitrile, 288.15 K	3.3e-05
in acetonitrile, 293.15 K	6.5e-05
in acetonitrile, 298.15 K	0.000103
in acetonitrile, 303.15 K	0.000146
in acetonitrile, 308.15 K	0.000186
in acetonitrile, 313.15 K	0.000226
in acetonitrile, 318.15 K	0.000267
in acetonitrile, 323.15 K	0.000315
in acetonitrile, 328.15 K	0.000358
in acetonitrile, 333.15 K	0.000416
in dichloromethane, 283.15 K	0.000134
in dichloromethane, 288.15 K	0.000221
in dichloromethane, 293.15 K	0.000313
in dichloromethane, 298.15 K	0.000412
in dichloromethane, 303.15 K	0.000511
in dichloromethane, 308.15 K	0.000614
in ethanol, 283.15 K	7e-05
in ethanol, 288.15 K	0.000109
in ethanol, 293.15 K	0.000145
in ethanol, 298.15 K	0.000188
in ethanol, 303.15 K	0.000226
in ethanol, 308.15 K	0.000273
in ethanol, 313.15 K	0.000313
in ethanol, 318.15 K	0.000378
in ethanol, 323.15 K	0.000431
in ethanol, 328.15 K	0.000512
in ethanol, 333.15 K	0.000573
in ethyl acetate, 283.15 K	0.000455
in ethyl acetate, 288.15 K	0.000653
in ethyl acetate, 293.15 K	0.000863
in ethyl acetate, 298.15 K	0.00108
in ethyl acetate, 303.15 K	0.00132
in ethyl acetate, 308.15 K	0.00167
in ethyl acetate, 313.15 K	0.0019
in ethyl acetate, 318.15 K	0.00227
in ethyl acetate, 323.15 K	0.00262
in ethyl acetate, 328.15 K	0.00314
in ethyl acetate, 333.15 K	0.00379
in isobutanol, 283.15 K	6.9e-05
in isobutanol, 288.15 K	8.2e-05
in isobutanol, 293.15 K	9.7e-05
in isobutanol, 298.15 K	0.000113
in isobutanol, 303.15 K	0.000143
in isobutanol, 308.15 K	0.000189
in isobutanol, 313.15 K	0.000222
in isobutanol, 318.15 K	0.000263
in isobutanol, 323.15 K	0.000301
in isobutanol, 328.15 K	0.000346
in isobutanol, 333.15 K	0.000383
in isopropanol, 283.15 K	3.5e-05
in isopropanol, 288.15 K	6.8e-05
in isopropanol, 293.15 K	9.9e-05
in isopropanol, 298.15 K	0.000119
in isopropanol, 303.15 K	0.000154
in isopropanol, 308.15 K	0.000204
in isopropanol, 313.15 K	0.000254
in isopropanol, 318.15 K	0.00031
in isopropanol, 323.15 K	0.00036
in isopropanol, 328.15 K	0.000419
in isopropanol, 333.15 K	0.000493
in methanol, 283.15 K	0.000127
in methanol, 288.15 K	0.000149
in methanol, 293.15 K	0.000171
in methanol, 298.15 K	0.000212
in methanol, 303.15 K	0.000253
in methanol, 308.15 K	0.000292
in methanol, 313.15 K	0.000328
in methanol, 318.15 K	0.000407
in methanol, 323.15 K	0.000525
in methanol, 328.15 K	0.000653
in methanol, 333.15 K	0.000784
in methyl acetate, 283.15 K	1.5e-05
in methyl acetate, 288.15 K	4e-05
in methyl acetate, 293.15 K	8e-05
in methyl acetate, 298.15 K	0.000116
in methyl acetate, 303.15 K	0.000153
in methyl acetate, 308.15 K	0.000219
in methyl acetate, 313.15 K	0.000278
in methyl acetate, 318.15 K	0.000331
in methyl acetate, 323.15 K	0.0004
in methyl acetate, 328.15 K	0.000474
in n-butanol, 283.15 K	8.8e-05
in n-butanol, 288.15 K	0.0001
in n-butanol, 293.15 K	0.000122
in n-butanol, 298.15 K	0.000142
in n-butanol, 303.15 K	0.000181
in n-butanol, 308.15 K	0.000219
in n-butanol, 313.15 K	0.000264
in n-butanol, 318.15 K	0.000316
in n-butanol, 323.15 K	0.000362
in n-butanol, 328.15 K	0.00042
in n-butanol, 333.15 K	0.0005
in n-pentanol, 283.15 K	6.3e-05
in n-pentanol, 288.15 K	8.4e-05
in n-pentanol, 293.15 K	0.000114
in n-pentanol, 298.15 K	0.000142
in n-pentanol, 303.15 K	0.00017
in n-pentanol, 308.15 K	0.000215
in n-pentanol, 313.15 K	0.000321
in n-pentanol, 318.15 K	0.000487
in n-pentanol, 323.15 K	0.000628
in n-pentanol, 328.15 K	0.000805
in n-pentanol, 333.15 K	0.00104
in n-propanol, 283.15 K	6.6e-05
in n-propanol, 288.15 K	0.000109
in n-propanol, 293.15 K	0.000126
in n-propanol, 298.15 K	0.000154
in n-propanol, 303.15 K	0.000203
in n-propanol, 308.15 K	0.000253
in n-propanol, 313.15 K	0.000304
in n-propanol, 318.15 K	0.000355
in n-propanol, 323.15 K	0.000409
in n-propanol, 328.15 K	0.000456
in n-propanol, 333.15 K	0.000502
in sec-butanol, 283.15 K	3.8e-05
in sec-butanol, 288.15 K	6.8e-05
in sec-butanol, 293.15 K	9e-05
in sec-butanol, 298.15 K	0.000129
in sec-butanol, 303.15 K	0.000166
in sec-butanol, 308.15 K	0.000205
in sec-butanol, 313.15 K	0.000245
in sec-butanol, 318.15 K	0.000293
in sec-butanol, 323.15 K	0.000321
in sec-butanol, 328.15 K	0.000365
in sec-butanol, 333.15 K	0.000407
in water, 283.15 K	0.0457
in water, 288.15 K	0.0473
in water, 293.15 K	0.0493
in water, 298.15 K	0.0511
in water, 303.15 K	0.053
in water, 308.15 K	0.0554
in water, 313.15 K	0.0571
in water, 318.15 K	0.059
in water, 323.15 K	0.0612
in water, 328.15 K	0.0632
in water, 333.15 K	0.0671
